This is an account of results in patent publication EP0663826B1, “AMINO ACIDS CONTAINING PARENTERAL FORMULATIONS FOR THE TREATMENT OF HYPOTENSION AND RELATED PATHOLOGIES” (BOARD OF REGENTS THE UNIVERSITY OF TEXAS SYSTEM, priority 1991, dated 1993).

In assay [1] the test system is endotoxin-induced shock in dogs. In words: Endotoxin-induced hypotension in dogs (with nitroglycerin and control dogs). The settings on record: Study 2: Nitroglycerin-treated dogs (n=3). In kind it is in vivo. As for the experimental part:
Animals: Studies were carried out on 12 conditioned mongrel dogs (9 males and 3 females) weighing 22-32 kg (avg=25.3 kg). Animal care was in accordance with the recommendations of the American Association for Accreditation of Laboratory Animal Care, and met all standards prescribed by the Guide for the Care and Use of Laboratory Animals (Guide for the Care and Use of Laboratory Animals (1978) Dept. of Health, Education and Welfare, Washington, D.C. (Publ. No. 78-23). Animal protocols were approved by The University of Texas Animal Welfare committee. The dogs were fasted overnight prior to the day of experimentation. They were anesthetized with sodium pentobarbital (25 mg/kg i.v.). Dogs were then endotracheally intubated and ventilated with a piston-driven respirator (Harvard instruments) using room air at a tidal volume of 15 ml/kg and at a rate of 12 to 14 breaths per minute, adjusted to achieve a normal arterial pH and pCO2 (Instrumentation Laboratories lL1302 pH/Blood Gas Analyzer). Catheters were placed percutaneously into the femoral and pulmonary arteries; In the latter, a flow-directed thermal-dilation catheter was used (Abbott Critical Care Systems).
Physiologic measurements: Mean SAP and heart rate were continuously monitored (Parametron 7048 Monitoring System, Roche) and stored on a magnetic disk using an analog-to-digital converter (Scientific Solutions, Inc.). Cardiac output (CO) was determined as the mean of six measurements by thermal-dilution. Systemic vascular resistance was calculated as (SAP X80)/CO and expressed as dynes-sec/cm^5 (kg/s·cm^4).
Protocol: After the blood pressure and heart rate stabilized, endotoxin (40 µg/kg, in 10 ml of phosphate-buffered saline (PBS), pH 7.4) was infused i.v. over 2 minutes. This dose of endotoxin typically induces severe and often lethal cardiovascular collapse in the dog. Blood pressure was monitored, and when either SAP fell below 60 mm Hg or a stable nadir in systemic arterial pressure (SAP) was maintained for 10 minutes, L-NMA was administered (20 mg/kg in 5 ml of PBS i.v. over 1 min.). In most experiments, L-arginine (400 mg/kg in 20 ml PBS) was administered ten minutes later by i.v. infusion over 2 minutes. In control experiments, dogs without prior exposure to endotoxin received L-NMA alone. To simulate the hypotension observed in dogs receiving endotoxin, one group of dogs received a continuous i.v. infusion of nitroglycerin (2 mg/ml) at a rate adjusted to maintain the SAP at 60-70 mm Hg. Nitroglycerin-treated dogs then received L-NMA (20 mg/kg) and 20 minutes later L-arginine was administered ([…]).
Statistics: Statistical significance was evaluated using Student's test and either a one-tailed or two-tailed analysis as appropriate for comparisons.

For another assay, the system named is pithed rats. In words: Blood pressure response to phenylephrine in pithed rats without/with arginase. The settings on record: for Blood Pressure Increase With Arginase Ave. ± S.D.: after arginase; for difference in pressor response between control and endotoxic animals: phenylephrine 6 µg/Kg. In kind it is in vivo. As to the method: Animals were pithed as described in Example 1. Blood pressure measurements were obtained also as described in Example 1. Arginase was also prepared according to the method described in Example 1.
Both left and right jugular veins were cannulated for drug administration; and left jugular was used for bolus administration of phenylephrine and the right jugular vein was used for continuous infusion of arginase. All animals from both groups (Control and Endotoxin) received phenylephrine in sequential doses of 0.3, 1.0, 2.0, or 6.0 ug/Kg.
Endotoxin (15 mg/kg body weight) was given by intravenous injection 6 hrs before the experiment began; arginase (300 I.U./Min. for 20 min.) was given intravenously to each rat after the "Without Arginase" measurements were made.
For the second, third and fourth rats, the blood pressure increments were 14, 32 and 9 before arginase, respectively, and 9, 20 and 10 after arginase, respectively.

The mark [2] stands for this setting: Study #1: Control Animals, phenylephrine 0.3 µg/Kg.
Where [3] appears, read: Study #1: Control Animals, phenylephrine 1.0 µg/Kg.
Where [4] appears, read: Study #1: Control Animals, phenylephrine 2.0 µg/Kg.
[5] abbreviates: Study #1: Control Animals, phenylephrine 6.0 µg/Kg.
The mark [6] stands for this setting: Study #2: Endotoxic Animals, phenylephrine 0.3 µg/Kg.
Where [7] appears, read: Study #2: Endotoxic Animals, phenylephrine 1.0 µg/Kg.
Setting [8] is: Study #2: Endotoxic Animals, phenylephrine 2.0 µg/Kg.
Where [9] appears, read: Study #2: Endotoxic Animals, phenylephrine 6.0 µg/Kg.

Consider `O=[N+]([O-])OCC(CO[N+](=O)[O-])O[N+](=O)[O-]` [Nitroglycerin], for which the “Cardiac Output” value in assay [1] (means ± S.E., baseline 3.14 ± 0.21) is 2.72 ± 0.27 L/min. Also, the “Heart Rate” value in assay [1] (means ± S.E., baseline 143.7 ± 12.1) amounted to 137.3 ± 5.0 beats/min. Also, the “Systemic Vascular Resistance” value in assay [1] (means ± S.E., baseline 3294 ± 74) came to 1924 ± 132 dynes-sec/cm^5; in assay [1] (value in brackets), 1.924 ± 0.132 Kg/s·cm^4. Also, the “Systemic Arterial Pressure” value in assay [1] (means ± S.E., continuous nitroglycerin (2 mg/ml) titrated to SAP 65 mm Hg, then L-NMA 20 mg/kg, then L-arginine, baseline 129.3 ± 10.2) worked out at 64.7 ± 2.7 mmHg.

As for `CNC[C@H](O)c1cccc(O)c1` [Phenylephrine, phenylephrine], the “Blood Pressure Increase Without Arginase Ave. ± S.D.” value in the assay with pithed rats (setting [2]) is recorded as 17.8 ± 5.0 mm Hg; with pithed rats (setting [3]) it was 31.3 ± 4.0 mm Hg; in the assay with pithed rats (setting [4]), 51.0 ± 6.6 mm Hg; with pithed rats (setting [5]) it was 93.0 ± 10.3 mm Hg; in the assay on pithed rats (setting [6]), 2.2 ± 0.7 mm Hg; in the assay on pithed rats (setting [7]), 7.0 ± 1.1 mm Hg. For the same compound, the “Blood Pressure Increase Without Arginase Ave. ± S.D.” value with pithed rats (setting [8]) turned out to be 13.6 ± 2.6 mm Hg; in the assay on pithed rats (setting [9]), 33.7 ± 9.6 mm Hg. In addition, the “Blood Pressure Increase With Arginase Ave. ± S.D.” value stood at 13.3 ± 2.5 mm Hg in the assay with pithed rats (setting [2]); 22.5 ± 6.1 mm Hg in the assay with pithed rats (setting [3]); 38.8 ± 9.1 mm Hg with pithed rats (setting [4]); 79.8 ± 13.4 mm Hg in the assay with pithed rats (setting [5]); 2.0 ± 0.6 mm Hg in the assay on pithed rats (setting [6]); 9.0 ± 1.8 mm Hg in the assay with pithed rats (setting [7]). Besides, the results for the “Blood Pressure Increase With Arginase Ave. ± S.D.” value with pithed rats (setting [8]) and with pithed rats (setting [9]) were 23.3 ± 5.3 mm Hg and 48.5 ± 7.6 mm Hg, respectively. In addition, the “difference in pressor response between control and endotoxic animals” value with pithed rats (animals given arginase) is listed as 31.3 mm Hg; with pithed rats (animals not given arginase), 59.3 mm Hg.
